Data on 14 molecules can be found in patent US8835458B2 (Hanmi Science Co., Ltd, priority 2010, dated 2014).

In series [1] the test system is MDA-MB-231 breast cancer cell lines. Put plainly: Evaluation of inhibition on cell growth (MTS). The format is cell-based. The note with it: Homo sapiens, MDA-MB-231, 120 hours. A digest of the protocol: (§1)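 Cells seeded at 3,000˜5,000 cells/100 μL, grown 24 h at 37° C (MDA-MB-231 under atmospheric conditions), then exposed to 10 μM˜0.1 nM compound. MDA-MB-231 cultured 120 h, read by MTS at 490 nm; fibroblasts cultured 72 h, TCA-fixed, SRB-stained, read at 540 nm. GI50 from growth relative to untreated and medium-only cells.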

Series [2] is described as follows: Toxicity to normal cells (SRB). Conditions: mouse, Balb/c3t3 fibroblasts (normal cell line), read-out: BalB/C (GI50). Format: cell-based, mouse. Here is the method: MDA-MB-231 breast cancer cell lines (ATCC #HTB-26) and BxPC-3 pancreas cancer cell lines (ATCC #CRL 1687), which have been reported to express XIAP, were obtained from ATCC (American type culture collection; Rockville, Md.). MDA-MB-231 cell lines were incubated in L-15 medium supplemented with 10% FBS and 1% penicillin/streptomycin (Gibco BRL) at a T-75 cm^2 growth flask. In addition, BxPC-3 cell lines were incubated in RPMI medium supplemented with 10% FBS and 1% penicillin/streptomycin. For experiments of toxicity to normal cells, fibroblasts Hs27 (ATCC #CRL 1634) and Balb/c3t3 (ATCC #CCL 163) were used. The various cell lines were transferred into 96-well plates at a density of 3,000˜5,000 cells/100 μL, and cultured for 24 hours under conditions of 37° C., 5% CO2, 95% air, and 100% relative humidity (MDA-MB-231 cells were cultured under atmospheric conditions). The cells were treated with 10 μM˜0.1 nM of test compounds, and MDA-MB-231, BxPC-3, and normal cell lines were cultured for 120, 96, and 72 hours, respectively.
Cell viabilities of MDA-MB-231 cell lines were measured at an absorbance of 490 nm using CellTiter 96™ AQueous One Solution Cell proliferation Assay (MTS, Promega), and cell viabilities of BxPC-3 and normal cell lines were measured by fixing cells with 10% TCA (trichloroacetic acid), staining with SRB (sulforhodamine B), and measuring at 540 nm. From the values, GI50 values in which test compounds reduce the growth of cancer cells by 50% were calculated. The growth rates of cancer cells were calculated from following Equation 1 or 2. [(Ti−Tz)/(C−Tz)]×100 (for Ti>=Tz) [Equation 1] [(Ti−Tz)/Tz]×100 (for Ti<Tz) [Equation 2] In Equations 1 and 2, Tz refers to a density of untreated cells, which is an absorbance in 0% cell growth groups. C refers to a density of cells cultured by adding only medium, and Ti refers to a density of cells treated with test compounds.
GI50 value is the concentration of a test compound when the value of Equation 1 is 50, which indicates the concentration of test compound required to inhibit the cancer cells by 50%. On each measurement, test compounds were compared with a control.
The activity value of each compound (GI50 value) was shown in Table 5, and an IAP antagonist was used as a control.
In the activity measurement on MDA-MB-231 breast cancer cell lines, the values were represented as “***” for 100 nM or less, “**” for over 100 nM to below 1,000 nM, and “*” for 1,000 nM or more. In the measurement on normal cell lines, Balb/C and Hs27, the values were represented as “+++” for 10,000 nM or more, “++” for over 5,000 nM to below 10,000 nM, and “+” for 5,000 nM or less.

Series [3] is described as follows: Toxicity to normal cells (SRB). Format: cell-based, human. The note with it: human, Hs27 fibroblasts (normal cell line). A digest of the protocol: as §1

Structures can show the parent of a compound that is named as a salt. Where two headings read alike, the source gives them in different places.

Turning to `CN[C@@H](C)C(=O)N[C@H](C(=O)N1CCC[C@H]1C(=O)Nc1cc2c(Nc3ccc4[nH]ncc4c3)ncnc2cc1OC)C(C)(C)C` [Example 54, (S)—N-(4-(1H-indazol-5-ylamino)-7-methoxyquinazolin-6-yl)-1-((S)-3,3-dimethyl-2-((S)-2-(methylamino)propanamido)butanoyl)pyrrolidine-2-carboxamide], in series [1], the GI50 is ≤ 0.1 µM. Moreover, the GI50 at 72 h in series [2] and in series [3] was > 10 µM in each case.
As to `CN[C@@H](C)C(=O)N[C@H](C(=O)N1CCC[C@H]1C(=O)Nc1cc2c(Nc3ccc(OCc4cccc(F)c4)c(Cl)c3)ncnc2cc1OC)C(C)(C)C` [Example 37, (S)—N-(4-(3-chloro-4-(3-fluorobenzyloxy)phenylamino)-7-methoxyquinazolin-6-yl)-1-((S)-3,3-dimethyl-2-((S)-2-(methylamino)propanamido)butanoyl)pyrrolidine-2-carboxamide hydrochloride], the GI50 in series [1] is ≤ 0.1 µM. For the same molecule, the GI50 at 72 h in series [2] and in series [3] was > 10 µM in each case.
On to `CN[C@@H](C)C(=O)N[C@H](C(=O)N1CCC[C@H]1C(=O)Nc1cc2c(Nc3ccc4ncccc4c3)ncnc2cc1OC)C(C)(C)C` [Example 53, (S)-1-((S)-3,3-dimethyl-2-((S)-2-(methylamino)propanamido)butanoyl)-N-(7-methoxy-4-(quinoline-6-ylamino)quinazolin-6-yl)pyrrolidine-2-carboxamide], for which the GI50 in series [1] is ≤ 0.1 µM. Moreover, the GI50 at 72 h in series [2] and in series [3] was > 10 µM each time.
As for `CN[C@@H](C)C(=O)N[C@H](C(=O)N1CCC[C@H]1C(=O)Nc1cc2c(Nc3ccc(F)cc3F)ncnc2cc1OC)C(C)(C)C` [Example 28, (S)—N-(4-(2,4-difluorophenylamino)-7-methoxyquinazolin-6-yl)-1-((S)-3,3-dimethyl-2-((S)-2-(methylamino)propanamido)butanoyl)pyrrolidine-2-carboxamide hydrochloride], the GI50 in series [1] was ≤ 0.1 µM. Also, the GI50 at 72 h in series [2] and in series [3] was > 10 µM each time.
As to `CN[C@@H](C)C(=O)N[C@H](C(=O)N1CCC[C@H]1C(=O)Nc1cc2c(Nc3ccc4c(c3)CCC4)ncnc2cc1OC)C(C)(C)C` [Example 52, (S)—N-(4-(2,3-dihydro-1H-inden-5-ylamino)-7-methoxyquinazolin-6-yl)-1-((S)-3,3-dimethyl-2-((S)-2-(methylamino)propanamido)butanoyl)pyrrolidine-2-carboxamide hydrochloride], the GI50 in series [1] was ≤ 0.1 µM. For the same molecule, the GI50 at 72 h in series [2] and in series [3] was > 10 µM each time.
For `CN[C@@H](C)C(=O)N[C@H](C(=O)N1CCC[C@H]1C(=O)Nc1cc2c(NCc3ccc(F)cc3F)ncnc2cc1OC)C(C)(C)C` [Example 35, (S)—N-(4-(2,4-difluorobenzylamino)-7-methoxyquinazolin-6-yl)-1-((S)-3,3-dimethyl-2-((S)-2-(methylamino)propanamido)butanoyl)pyrrolidine-2-carboxamide hydrochloride], the GI50 in series [1] was ≤ 0.1 µM. In addition, the GI50 at 72 h in series [2] and in series [3] was > 10 µM in each case.
Turning to `CN[C@@H](C)C(=O)N[C@H](C(=O)N1CCC[C@H]1C(=O)Nc1cc2c(N(C)c3ccccc3)ncnc2cc1OC)C(C)(C)C` [Example 31, (S)-1-((S)-3,3-dimethyl-2-((S)-2-(methylamino)propanamido)butanoyl)-N-(7-methoxy-4-(methyl(phenyl)amino)quinazolin-6-yl)pyrrolidine-2-carboxamide hydrochloride], the GI50 in series [1] is ≤ 0.1 µM. The GI50 at 72 h in series [2] and in series [3] was > 10 µM each time.
On to `CN[C@@H](C)C(=O)N[C@H](C(=O)N1CCC[C@H]1C(=O)Nc1cc2c(Nc3ccc(F)c(Cl)c3F)ncnc2cc1O)C(C)(C)C` [Example 43, (S)—N-(4-(3-chloro-2,4-difluorophenylamino)-7-hydroxyquinazolin-6-yl)-1-((S)-3,3-dimethyl-2-((S)-2-(methylamino)propanamido)butanoyl)pyrrolidine-2-carboxamide], for which the GI50 in series [1] was ≤ 0.1 µM. The GI50 at 72 h in series [2] and in series [3] was > 10 µM each time.
As for `CN[C@@H](C)C(=O)N[C@H](C(=O)N1CCC[C@H]1C(=O)Nc1cc2c(Nc3cc(NC(C)=O)ccc3Cl)ncnc2cc1OC)C(C)(C)C` [Example 75, (S)—N-(4-(5-acetamino-2-chlorophenylamino)-7-methoxyquinazolin-6-yl)-1-((S)-3,3-dimethyl-2-((S)-2-(methylamino)propanamido)butanoyl)pyrrolidine-2-carboxamide], the GI50 in series [1] is ≤ 0.1 µM. Further, the GI50 at 72 h in series [2] and in series [3] was > 10 µM each time.
With `CN[C@@H](C)C(=O)N[C@H](C(=O)N1CCCC[C@H]1C(=O)Nc1cc2c(Nc3ccc(F)c(Cl)c3F)ncnc2cc1OC)C(C)(C)C` [Example 25], the GI50 in series [1] was in the range of 0.1 to 1 µM. The GI50 at 72 h in series [2] and in series [3] was > 10 µM in each case.
`CN[C@@H](C)C(=O)N[C@H](C(=O)N1CCC[C@H]1C(=O)Nc1cc2c(Nc3ccc(F)cc3)ncnc2cc1OC)C(C)(C)C` [Example 55, (S)-1-((S)-3,3-dimethyl-2-((S)-2-(methylamino)propanamido)butanoyl)-N-(4-(4-fluorophenylamino)-7-methoxyquinazolin-6-yl)pyrrolidine-2-carboxamide]: the GI50 in series [1] is ≤ 0.1 µM. Also, the GI50 at 72 h in series [2] and in series [3] was > 10 µM each time.
Turning to `CN[C@@H](C)C(=O)N[C@H](C(=O)N1CCC[C@H]1C(=O)Nc1cc2c(Nc3ccccc3C)ncnc2cc1OC)C(C)(C)C` [Example 27, (S)—N-(4-(o-toluidino)-7-methoxyquinazolin-6-yl)-1-((S)-3,3-dimethyl-2-((S)-2-(methylamino)propanamido)butanoyl)pyrrolidine-2-carboxamide hydrochloride], in series [1], the GI50 is ≤ 0.1 µM. Further, the GI50 at 72 h in series [2] and in series [3] was > 10 µM each time.
Regarding `CN[C@@H](C)C(=O)N[C@H](C(=O)N1CCC[C@H]1C(=O)Nc1cc2c(Nc3ccc(N4CCCC4)cc3)ncnc2cc1OC)C(C)(C)C` [Example 65, (S)-1-((S)-3,3-dimethyl-2-((S)-2-(methylamino)propanamido)butanoyl)-N-(7-methoxy-4-(4-(pyrrolidin-1-yl)phenylamino)quinazolin-6-yl)pyrrolidine-2-carboxamide dihydrochloride], in series [1], the GI50 was ≤ 0.1 µM. Moreover, the GI50 at 72 h in series [2] and in series [3] was > 10 µM throughout.
Turning to `CN[C@@H](C)C(=O)N[C@H](C(=O)N1C[C@H](OCc2ccccc2)C[C@H]1C(=O)Nc1cc2c(Nc3ccc(F)c(Cl)c3F)ncnc2cc1OC)C(C)(C)C` [Example 46, (2S,4R)-4-(benzyloxy)-N-(4-(3-chloro-2,4-difluorophenylamino)-7-methoxyquinazolin-6-yl)-1-((S)-3,3-dimethyl-2-((S)-2-(methylamino)propanamido)butanoyl)pyrrolidine-2-carboxamide hydrochloride], the GI50 in series [1] was ≤ 0.1 µM. The GI50 at 72 h in series [2] and in series [3] was > 10 µM each time.
